Laboratory results as given in ChEMBL document CHEMBL1201862, “PubChem BioAssay data set” (2004).
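Each compound was tested at five concentrations against cells in 96-well plates for 48 hours. GI50 is the concentration that inhibits growth by half.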 Active and inactive are the calls of the source. Cut-off read from the data, not from the text of the source: active = GI50 up to about 1.1 µM and inactive = higher.

How the values were obtained:
Test in all cases: NCI tumour cell line growth inhibition, 48 h
786-0 = tested on: 786-0
A498 = tested on: A498
ACHN = tested on: ACHN
BT-549 = tested on: BT-549
CAKI-1 = tested on: CAKI-1
CCRF-CEM = tested on: CCRF-CEM
COLO 205 = tested on: COLO 205
DU-145 = tested on: DU-145
EKVX = tested on: EKVX
HCC 2998 = tested on: HCC 2998
HCT-116 = tested on: HCT-116
HCT-15 = tested on: HCT-15
HL-60 = tested on: HL-60
HOP-62 = tested on: HOP-62
HOP-92 = tested on: HOP-92
HT-29 = tested on: HT-29
IGROV-1 = tested on: IGROV-1
K562 = tested on: K562
KM12 = tested on: KM12
LOX IMVI = tested on: LOX IMVI
MCF7 = tested on: MCF7
MDA-MB-231 = tested on: MDA-MB-231
MDA-MB-435 = tested on: MDA-MB-435
MDA-N = tested on: MDA-N
MOLT-4 = tested on: MOLT-4
Malme-3M = tested on: Malme-3M
NCI-H226 = tested on: NCI-H226
NCI-H23 = tested on: NCI-H23
NCI-H460 = tested on: NCI-H460
NCI-H522 = tested on: NCI-H522
OVCAR-3 = tested on: OVCAR-3
OVCAR-4 = tested on: OVCAR-4
OVCAR-5 = tested on: OVCAR-5
PC-3 = tested on: PC-3
RPMI-8226 = tested on: RPMI-8226
RXF 393 = tested on: RXF 393
SF-268 = tested on: SF-268
SF-295 = tested on: SF-295
SK-MEL-28 = tested on: SK-MEL-28
SK-MEL-2 = tested on: SK-MEL-2
SK-MEL-5 = tested on: SK-MEL-5
SK-OV-3 = tested on: SK-OV-3
SN12C = tested on: SN12C
SNB-19 = tested on: SNB-19
SR = tested on: SR
SW-620 = tested on: SW-620
TK-10 = tested on: TK-10
U-251 = tested on: U-251
UACC-257 = tested on: UACC-257
UACC-62 = tested on: UACC-62
UO-31 = tested on: UO-31
A549 = tested on: A549
Hs-578T = tested on: Hs-578T
M14 = tested on: M14
NCI/ADR-RES = tested on: NCI/ADR-RES
OVCAR-8 = tested on: OVCAR-8
SF-539 = tested on: SF-539
SNB-75 = tested on: SNB-75

CC1(C)OCC(COC(=O)C=[N+]=[N-])O1 (centres undefined)
GI50 (786-0): > 100 µM (inactive) | GI50 (A498): > 100 µM (inactive) | GI50 (ACHN): > 100 µM (inactive) | GI50 (BT-549): > 100 µM (inactive) | GI50 (CAKI-1): > 100 µM (inactive) | GI50 (CCRF-CEM): > 100 µM (inactive) | GI50 (COLO 205): > 100 µM (inactive) | GI50 (DU-145): > 100 µM (inactive) | GI50 (EKVX): > 100 µM (inactive) | GI50 (HCC 2998): > 100 µM (inactive) | GI50 (HCT-116): > 100 µM (inactive) | GI50 (HCT-15): > 100 µM | GI50 (HL-60): > 100 µM (inactive) | GI50 (HOP-62): 79.8 µM (inactive) | GI50 (HOP-92): 14.9 µM (inactive) | GI50 (HT-29): > 100 µM (inactive) | GI50 (IGROV-1): > 100 µM (inactive) | GI50 (K562): > 10 µM (inactive) | GI50 (KM12): > 100 µM (inactive) | GI50 (LOX IMVI): > 100 µM (inactive) | GI50 (MCF7): 46.5 µM (inactive) | GI50 (MDA-MB-231): > 100 µM (inactive) | GI50 (MDA-MB-435): > 100 µM (inactive) | GI50 (MDA-N): > 100 µM (inactive) | GI50 (MOLT-4): > 100 µM (inactive) | GI50 (Malme-3M): > 100 µM (inactive) | GI50 (NCI-H226): > 100 µM (inactive) | GI50 (NCI-H23): > 100 µM (inactive) | GI50 (NCI-H460): 13.2 µM (inactive) | GI50 (NCI-H522): > 100 µM (inactive) | GI50 (OVCAR-3): > 100 µM (inactive) | GI50 (OVCAR-4): > 100 µM (inactive) | GI50 (OVCAR-5): > 100 µM (inactive) | GI50 (PC-3): > 100 µM (inactive) | GI50 (RPMI-8226): > 100 µM (inactive) | GI50 (RXF 393): > 100 µM (inactive) | GI50 (SF-268): > 100 µM (inactive) | GI50 (SF-295): > 100 µM (inactive) | GI50 (SK-MEL-28): > 100 µM (inactive) | GI50 (SK-MEL-2): > 100 µM (inactive) | GI50 (SK-MEL-5): > 100 µM (inactive) | GI50 (SK-OV-3): > 100 µM (inactive) | GI50 (SN12C): > 100 µM (inactive) | GI50 (SNB-19): > 100 µM (inactive) | GI50 (SR): > 100 µM (inactive) | GI50 (SW-620): > 100 µM (inactive) | GI50 (TK-10): > 100 µM (inactive) | GI50 (U-251): > 100 µM (inactive) | GI50 (UACC-257): > 100 µM (inactive) | GI50 (UACC-62): > 100 µM (inactive) | GI50 (UO-31): > 100 µM (inactive)

CCOC(=O)CC(=O)NC1CC2CCC1(C)C2(C)C (centres undefined)
GI50 (786-0): > 100 µM (inactive) | GI50 (A498): > 100 µM (inactive) | GI50 (A549): > 100 µM (inactive) | GI50 (ACHN): > 100 µM (inactive) | GI50 (BT-549): > 100 µM (inactive) | GI50 (CAKI-1): > 100 µM (inactive) | GI50 (CCRF-CEM): > 100 µM (inactive) | GI50 (COLO 205): > 100 µM (inactive) | GI50 (DU-145): > 100 µM (inactive) | GI50 (EKVX): > 100 µM (inactive) | GI50 (HCC 2998): > 100 µM (inactive) | GI50 (HCT-116): > 100 µM (inactive) | GI50 (HCT-15): > 100 µM | GI50 (HL-60): > 100 µM (inactive) | GI50 (HOP-62): > 100 µM (inactive) | GI50 (HT-29): > 100 µM (inactive) | GI50 (Hs-578T): > 100 µM (inactive) | GI50 (IGROV-1): > 100 µM (inactive) | GI50 (K562): > 100 µM (inactive) | GI50 (KM12): > 100 µM (inactive) | GI50 (LOX IMVI): > 100 µM (inactive) | GI50 (M14): > 100 µM (inactive) | GI50 (MCF7): > 100 µM (inactive) | GI50 (MDA-MB-231): > 100 µM (inactive) | GI50 (MDA-MB-435): > 100 µM (inactive) | GI50 (MDA-N): > 100 µM (inactive) | GI50 (MOLT-4): > 100 µM (inactive) | GI50 (Malme-3M): > 100 µM (inactive) | GI50 (NCI-H226): > 100 µM (inactive) | GI50 (NCI-H23): > 100 µM (inactive) | GI50 (NCI-H460): > 100 µM (inactive) | GI50 (NCI/ADR-RES): > 100 µM (inactive) | GI50 (OVCAR-3): > 100 µM (inactive) | GI50 (OVCAR-4): > 100 µM (inactive) | GI50 (OVCAR-5): > 100 µM (inactive) | GI50 (OVCAR-8): > 100 µM (inactive) | GI50 (PC-3): > 100 µM (inactive) | GI50 (RPMI-8226): > 100 µM (inactive) | GI50 (RXF 393): > 100 µM (inactive) | GI50 (SF-268): > 100 µM (inactive) | GI50 (SF-295): > 100 µM (inactive) | GI50 (SF-539): > 100 µM (inactive) | GI50 (SK-MEL-28): > 100 µM (inactive) | GI50 (SK-MEL-5): > 100 µM (inactive) | GI50 (SK-OV-3): > 100 µM (inactive) | GI50 (SN12C): > 100 µM (inactive) | GI50 (SNB-19): > 100 µM (inactive) | GI50 (SNB-75): > 100 µM (inactive) | GI50 (SR): > 100 µM (inactive) | GI50 (SW-620): > 100 µM (inactive) | GI50 (TK-10): > 100 µM (inactive) | GI50 (U-251): > 100 µM (inactive) | GI50 (UACC-257): > 100 µM (inactive) | GI50 (UACC-62): > 100 µM (inactive) | GI50 (UO-31): > 100 µM (inactive)

[N-]=[N+]=C(C(=O)C(=[N+]=[N-])C(=O)c1ccccc1)C(=O)c1ccccc1
GI50 (786-0): > 100 µM (inactive) | GI50 (A549): > 100 µM (inactive) | GI50 (ACHN): > 100 µM (inactive) | GI50 (BT-549): > 100 µM (inactive) | GI50 (COLO 205): > 100 µM (inactive) | GI50 (DU-145): > 100 µM (inactive) | GI50 (EKVX): > 100 µM (inactive) | GI50 (HCC 2998): > 100 µM (inactive) | GI50 (HCT-116): > 100 µM (inactive) | GI50 (HCT-15): > 100 µM | GI50 (HL-60): > 100 µM (inactive) | GI50 (HOP-62): > 100 µM (inactive) | GI50 (HT-29): > 100 µM (inactive) | GI50 (Hs-578T): > 100 µM (inactive) | GI50 (IGROV-1): > 100 µM (inactive) | GI50 (K562): > 100 µM (inactive) | GI50 (KM12): 44.2 µM (inactive) | GI50 (LOX IMVI): > 100 µM (inactive) | GI50 (M14): > 100 µM (inactive) | GI50 (MCF7): > 100 µM (inactive) | GI50 (MDA-MB-231): > 100 µM (inactive) | GI50 (MDA-MB-435): > 100 µM (inactive) | GI50 (MDA-N): > 100 µM (inactive) | GI50 (Malme-3M): > 100 µM (inactive) | GI50 (NCI-H23): > 100 µM (inactive) | GI50 (NCI-H460): > 100 µM (inactive) | GI50 (NCI-H522): > 100 µM (inactive) | GI50 (NCI/ADR-RES): > 100 µM (inactive) | GI50 (OVCAR-3): > 100 µM (inactive) | GI50 (OVCAR-5): > 100 µM (inactive) | GI50 (OVCAR-8): > 100 µM (inactive) | GI50 (PC-3): > 100 µM (inactive) | GI50 (RPMI-8226): > 100 µM (inactive) | GI50 (RXF 393): > 100 µM (inactive) | GI50 (SF-268): > 100 µM (inactive) | GI50 (SF-295): > 100 µM (inactive) | GI50 (SF-539): > 100 µM (inactive) | GI50 (SK-MEL-28): > 100 µM (inactive) | GI50 (SK-MEL-2): > 100 µM (inactive) | GI50 (SK-MEL-5): > 100 µM (inactive) | GI50 (SN12C): > 100 µM (inactive) | GI50 (SNB-19): > 100 µM (inactive) | GI50 (SNB-75): > 100 µM (inactive) | GI50 (SW-620): > 100 µM (inactive) | GI50 (TK-10): > 100 µM (inactive) | GI50 (UACC-257): > 100 µM (inactive) | GI50 (UACC-62): > 100 µM (inactive) | GI50 (UO-31): 65.5 µM (inactive)
